Measured values published in patent publication US11413278B2, “Compounds and methods for promoting stress resistance” (priority 2015, dated 2022).
Read-outs that look alike come from different tables or passages of the source.

Experiments:
mTOR = mTOR inhibition (RPS6 phosphorylation status), In-Cell Western; format: cell-based, human
Procedure, shortened: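 Read-out is In-Cell Western near-infrared imaging of phospho-RPS6 (Ser-235/236) against total RPS6, using overnight 4° C primary staining and DyLight 680/800 secondaries. Compounds were given to WI-38 cells for 24 hrs at three doses: 5, 10 and 20 μM.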

WI-38 cells = conditions: for No H2O2 stress treatment, at 10 uM (fold change): normalized ATP measurement; for Assay 1: H2O2-resistant: YES/NO, if NO, possibly due to repeated freezing/thawing of stocks
[1] = tested on: PC12 cells expressing poly(Q)103-Htt-EGFP; assay: Poly(Q) toxicity & viability analysis (cellular model of Huntington's disease); format: cell-based, rat; conditions: for M = Huntington's poly-Q toxicity attenuation: score; for K = Huntington's poly-Q toxicity attenuation: summary score
Procedure, shortened: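 Readout is CellTiter-Glo ATP content measured after 48 hrs. Cells are a PC12 line stably expressing inducible poly(Q)103-Htt-EGFP, where induction produces toxic aggregates.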

NRF2 [2] = assay: in vitro; format: cell-based, human
NRF2 [3] = assay: qPCR analysis of NRF2-regulated genes; format: cell-based, human; conditions: for fold induction at 10 µM: Homo sapiens
Procedure, shortened: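 Expression of HMOX1, NQO1, GCLC and GSTM1 measured by qPCR relative to B2M, PPIA and GAPDH. Cells were WI-38 fibroblasts exposed 24 hrs to 10 μM compound, with RNA and cDNA prepared via Cells-to-Ct. Where stated, cells were first transfected 36 hrs with FOXO3 or NRF2 siRNA at 10 nM.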

[4] = WI-38 cells, 10 μM, (*) = compromised ability to protect cells from H2O2, could be due to stability issue
[5] = asterisks indicate the loss of the ability to protect cells from H2O2 over time
[6] = read-out: Est. ED50, dose response 0.6-20 μM, H2O2-resistance
[7] = WI-38 cells, 10 μM, 24 hrs, n=4, qPCR normalized by B2M, read-out: GCLC Normalized fold change
[8] = WI-38 cells, 10 μM, 24 hrs, n=4, qPCR normalized by B2M, read-out: GSTM1 Normalized fold change
[9] = WI-38 cells, 10 μM, 24 hrs, n=4, qPCR normalized by B2M, read-out: HMOX1 Normalized fold change
[10] = WI-38 cells, 10 μM, 24 hrs, n=4, qPCR normalized by B2M, read-out: NQO1 Normalized fold change

CNC(=O)/C(C#N)=C/c1c(Oc2ccc(C(C)(C)C)cc2)nc2ccccn2c1=O [Gr-5D] was tested, and the “G = mTOR down-regulation” value (mTOR; 2-point score) was 0, the “G = mTOR down-regulation” value (mTOR; summary score) was 0 and the H2O2-resistant (WI-38 cells; [4]) was “YES (*)”. The “No H2O2 stress treatment, at 10 uM (fold change)” value (WI-38 cells; WI-38 cells) was 1.14 fold change, the “Assay 1: H2O2-resistant” value (WI-38 cells) was “YES” and the H2O2-resistant (WI-38 cells; [5]) was “YES (*)”. The EC50 (WI-38 cells; [6]) was 18.7 µM, the “M = Huntington's poly-Q toxicity attenuation” value [1] was 0 and the “K = Huntington's poly-Q toxicity attenuation” value [1] was 0. The “J = NRF2-dependency for H2O2-resistance” value (NRF2 [2]; score) was 0, the “J = NRF2-dependency for H2O2-resistance” value (NRF2 [2]; summary score) was 0 and the “TXNIP expression, normalized fold change (printed in the column of NRF2-regulated genes)” value (NRF2 [3]; 10 μM, 24 hrs, WI-38 cells, qPCR, normalized to B2M, n = 4) was “TXNIP 0.67, fold”. For the same molecule, the “F = Potential NRF2 Activation” value (NRF2 [3]; 2-point score) was 2, the “Induction of NRF2-regulated genes: TXNIP normalized fold-change” value (NRF2 [3]; Assay 12(o), at 10 uM, qPCR) was “TXNIP 0.67, fold-change” and the “Potential NRF2 Activation (>=2 target genes induced, by >=1.5-fold)” value (NRF2 [3]; Assay 13(p)) was “YES”. The fold induction at 10 µM (NRF2 [3]; 24 h, Assay 12(o), at 10 uM, qPCR, read-out: Induction of NRF2-regulated genes: HMOX1 normalized fold-change) was 2.49, the fold induction at 10 µM (NRF2 [3]; 24 h, Assay 12(o), at 10 uM, qPCR, read-out: Induction of NRF2-regulated genes: NQO1 normalized fold-change) was 1.78 and the fold induction at 10 µM (NRF2 [3]; rounded fold change, WI-38 cells, 10 μM, 24 hrs (RP11 for Gr-1D, RP29 for Gr-4D), read-out: Summary of effects on NRF2-regulated genes: HMOX1) was 2.49. It also gave a fold induction at 10 µM (NRF2 [3]; rounded fold change, WI-38 cells, 10 μM, 24 hrs (RP29 for Gr-4D), read-out: Summary of effects on NRF2-regulated genes: NQO1) of 1.78, a fold induction at 10 µM (NRF2 [3]; 10 μM, 24 hrs, WI-38, read-out: Expression of at least two NRF2 target genes) of over 1.5 and a fold induction at 10 µM (NRF2 [3]; 10 μM, 24 hrs, WI-38 cells, qPCR, normalized to B2M, n = 4, read-out: HMOX1 expression, normalized fold change (NRF2-regulated gene)) of 2.49. It also gave a fold induction at 10 µM (NRF2 [3]; 10 μM, 24 hrs, WI-38 cells, qPCR, normalized to B2M, n = 4, read-out: NQO1 expression, normalized fold change (NRF2-regulated gene)) of 1.78, a fold induction at 10 µM (NRF2 [3]; [7]) of 0.886 and a fold induction at 10 µM (NRF2 [3]; [8]) of 1.17. The fold induction at 10 µM (NRF2 [3]; [9]) was 2.49, the fold induction at 10 µM (NRF2 [3]; [10]) was 1.78 and the “Summary of effects on NRF2-regulated genes: TXNIP” value (NRF2 [3]; fold change, WI-38 cells, 10 μM, 24 hrs) was 0.67,. The “F = Potential NRF2 Activation” value (NRF2 [3]; summary score) was 2.
With Cc1cc(N)n(-c2ccccc2C(=O)O)n1 [Gr-6A] the “G = mTOR down-regulation” value (mTOR; 2-point score) was 0, the “G = mTOR down-regulation” value (mTOR; summary score) was 0 and the H2O2-resistant (WI-38 cells; [4]) was “YES”. For the same molecule, the “No H2O2 stress treatment, at 10 uM (fold change)” value (WI-38 cells; WI-38 cells) was 1.10 fold change, the “Assay 1: H2O2-resistant” value (WI-38 cells) was “YES” and the H2O2-resistant (WI-38 cells; [5]) was “YES”. For the same molecule, the EC50 (WI-38 cells; derived from dose response curves, 0.6-20 uM, H2O2-resistance of WI-38 cells) was 13.8 µM, the EC50 (WI-38 cells; [6]) was 40.5 µM and the “M = Huntington's poly-Q toxicity attenuation” value [1] was 0. The “K = Huntington's poly-Q toxicity attenuation” value [1] was 0, the “J = NRF2-dependency for H2O2-resistance” value (NRF2 [2]; score) was 0 and the “J = NRF2-dependency for H2O2-resistance” value (NRF2 [2]; summary score) was 0. For the same molecule, the “F = Potential NRF2 Activation” value (NRF2 [3]; 2-point score) was 0, the fold induction at 10 µM (NRF2 [3]; [7]) was 1.03 and the fold induction at 10 µM (NRF2 [3]; [8]) was 1.09. For the same molecule, the fold induction at 10 µM (NRF2 [3]; [9]) was 1.1, the fold induction at 10 µM (NRF2 [3]; [10]) was 1.02 and the “F = Potential NRF2 Activation” value (NRF2 [3]; summary score) was 0.
